Experimental data as given in the NIST ThermoML archive (doi:10.1016/j.jct.2015.03.001).

Experiments:
[1] = relative permittivity at various frequencies (dimensionless); xn = mol fraction of the nth substance listed; conditions: 99 kPa, Liquid, Frequency=2 MHz, Parallel plate capacitor
[2] = refractive index (Na D-line) (dimensionless); xn = mol fraction of the nth substance listed; conditions: 99 kPa, Liquid, Abbe refractometer

CCC(C)Cl (stereo unspecified) [2-chlorobutane] + CCCCCCC
Conditions | refractive index, 283.15 K | refractive index, 298.15 K | refractive index, 313.15 K | relative permittivity, 283.15 K | relative permittivity, 298.15 K | relative permittivity, 313.15 K
[1], x2 = 0 | – | – | – | 9.323 | 8.652 | 8.07
[1], x2 = 0.0498 | – | – | – | 8.838 | 8.22 | 7.684
[1], x2 = 0.101 | – | – | – | 8.296 | 7.73 | 7.247
[1], x2 = 0.1985 | – | – | – | 7.191 | 6.75 | 6.373
[1], x2 = 0.3008 | – | – | – | 6.131 | 5.792 | 5.51
[1], x2 = 0.3994 | – | – | – | 5.252 | 5 | 4.774
[1], x2 = 0.503 | – | – | – | 4.471 | 4.283 | 4.1
[1], x2 = 0.6009 | – | – | – | 3.84 | 3.698 | 3.56
[1], x2 = 0.7053 | – | – | – | 3.268 | 3.165 | 3.063
[1], x2 = 0.8026 | – | – | – | 2.79 | 2.731 | 2.659
[1], x2 = 0.9027 | – | – | – | 2.352 | 2.309 | 2.276
[1], x2 = 0.9463 | – | – | – | 2.164 | 2.133 | 2.108
[2], x2 = 0 | 1.40226 | 1.39404 | 1.38562 | – | – | –
[2], x2 = 0.0483 | 1.40141 | 1.39319 | 1.3848 | – | – | –
[2], x2 = 0.1024 | 1.40056 | 1.39238 | 1.38401 | – | – | –
[2], x2 = 0.2021 | 1.39912 | 1.391 | 1.38268 | – | – | –
[2], x2 = 0.303 | 1.39778 | 1.3897 | 1.38144 | – | – | –
[2], x2 = 0.4031 | 1.3966 | 1.38859 | 1.38038 | – | – | –
[2], x2 = 0.5066 | 1.39562 | 1.38765 | 1.37951 | – | – | –
[2], x2 = 0.5998 | 1.39489 | 1.38699 | 1.3789 | – | – | –
[2], x2 = 0.7051 | 1.39429 | 1.38642 | 1.37841 | – | – | –
[2], x2 = 0.8055 | 1.39382 | 1.38603 | 1.37807 | – | – | –
[2], x2 = 0.9123 | 1.39337 | 1.38563 | 1.37773 | – | – | –
[2], x2 = 0.9433 | 1.39322 | 1.38549 | 1.37761 | – | – | –

CCC(C)Cl (stereo unspecified) [2-chlorobutane] + CCCCCC
Conditions | refractive index, 283.15 K | refractive index, 298.15 K | refractive index, 313.15 K | relative permittivity, 283.15 K | relative permittivity, 298.15 K | relative permittivity, 313.15 K
[1], x2 = 0 | – | – | – | 9.323 | 8.652 | 8.07
[1], x2 = 0.0536 | – | – | – | 8.752 | 8.128 | 7.593
[1], x2 = 0.0967 | – | – | – | 8.282 | 7.716 | 7.222
[1], x2 = 0.1993 | – | – | – | 7.216 | 6.76 | 6.345
[1], x2 = 0.2995 | – | – | – | 6.242 | 5.881 | 5.556
[1], x2 = 0.3993 | – | – | – | 5.389 | 5.093 | 4.827
[1], x2 = 0.4997 | – | – | – | 4.625 | 4.39 | 4.182
[1], x2 = 0.5974 | – | – | – | 3.963 | 3.786 | 3.626
[1], x2 = 0.7026 | – | – | – | 3.366 | 3.225 | 3.106
[1], x2 = 0.8044 | – | – | – | 2.811 | 2.72 | 2.642
[1], x2 = 0.9006 | – | – | – | 2.349 | 2.296 | 2.253
[1], x2 = 0.9472 | – | – | – | 2.137 | 2.105 | 2.07
[2], x2 = 0 | 1.40226 | 1.39404 | 1.38562 | – | – | –
[2], x2 = 0.0471 | 1.40083 | 1.3926 | 1.38418 | – | – | –
[2], x2 = 0.0973 | 1.39939 | 1.39115 | 1.38274 | – | – | –
[2], x2 = 0.1986 | 1.39658 | 1.38833 | 1.37993 | – | – | –
[2], x2 = 0.293 | 1.39412 | 1.38584 | 1.37742 | – | – | –
[2], x2 = 0.4036 | 1.39142 | 1.38315 | 1.3747 | – | – | –
[2], x2 = 0.5099 | 1.38903 | 1.38071 | 1.37229 | – | – | –
[2], x2 = 0.6202 | 1.38673 | 1.37842 | 1.37002 | – | – | –
[2], x2 = 0.708 | 1.38508 | 1.37678 | 1.3684 | – | – | –
[2], x2 = 0.8068 | 1.38338 | 1.3751 | 1.36674 | – | – | –
[2], x2 = 0.908 | 1.38183 | 1.37356 | 1.36523 | – | – | –
[2], x2 = 0.9555 | 1.38113 | 1.37286 | 1.36454 | – | – | –

CCCCCl [1-chlorobutane] + CCCCCC
Conditions | refractive index, 283.15 K | refractive index, 298.15 K | refractive index, 313.15 K | relative permittivity, 283.15 K | relative permittivity, 298.15 K | relative permittivity, 313.15 K
[1], x2 = 0 | – | – | – | 7.552 | 7.157 | 6.757
[1], x2 = 0.0476 | – | – | – | 7.176 | 6.821 | 6.456
[1], x2 = 0.0989 | – | – | – | 6.775 | 6.461 | 6.13
[1], x2 = 0.1968 | – | – | – | 6.057 | 5.8 | 5.526
[1], x2 = 0.3016 | – | – | – | 5.335 | 5.13 | 4.901
[1], x2 = 0.3968 | – | – | – | 4.722 | 4.553 | 4.37
[1], x2 = 0.5024 | – | – | – | 4.101 | 3.968 | 3.824
[1], x2 = 0.6034 | – | – | – | 3.567 | 3.458 | 3.348
[1], x2 = 0.6982 | – | – | – | 3.11 | 3.027 | 2.94
[1], x2 = 0.808 | – | – | – | 2.63 | 2.567 | 2.506
[1], x2 = 0.9029 | – | – | – | 2.259 | 2.217 | 2.176
[1], x2 = 0.9447 | – | – | – | 2.103 | 2.07 | 2.04
[2], x2 = 0 | 1.4075 | 1.3995 | 1.39131 | – | – | –
[2], x2 = 0.0534 | 1.40565 | 1.39762 | 1.38941 | – | – | –
[2], x2 = 0.1022 | 1.404 | 1.39595 | 1.38772 | – | – | –
[2], x2 = 0.2056 | 1.40063 | 1.39253 | 1.38428 | – | – | –
[2], x2 = 0.3039 | 1.39755 | 1.38941 | 1.38115 | – | – | –
[2], x2 = 0.3985 | 1.39477 | 1.38661 | 1.37832 | – | – | –
[2], x2 = 0.5023 | 1.39187 | 1.38367 | 1.37537 | – | – | –
[2], x2 = 0.6042 | 1.38921 | 1.38099 | 1.37267 | – | – | –
[2], x2 = 0.7026 | 1.38679 | 1.37855 | 1.37024 | – | – | –
[2], x2 = 0.8041 | 1.38445 | 1.37621 | 1.36788 | – | – | –
[2], x2 = 0.9082 | 1.38227 | 1.37401 | 1.3657 | – | – | –
[2], x2 = 0.9471 | 1.3815 | 1.37324 | 1.36493 | – | – | –
